Experimental data published in patent US10722516B2, “Use of landiolol hydrochloride in the long-term treatment of tachyarrhythmias” (AOP Orphan Pharmaceuticals AG, priority 2013, dated 2020).
Entries after “also recorded” stand apart in the source; their conditions may differ. Where a name gives a salt, the structure may show the parent alone.

Key:
healthy volunteers [1] = test: 24 h long-term infusion study, AOP LDLL600 against esmolol: heart rate; type: in vivo, human; settings: for heart rate: Table 1
Protocol: (§1) A single centre prospective, randomized, double blind, crossover, pharmacokinetic, safety and tolerability study to compare long-term infusion administration of AOP LDLL600 against esmolol in healthy volunteers was performed.
(§2) Landiolol hydrochloride lyophilized (LDLL600) comprises 600 mg landiolol hydrochloride, 600 mg mannitol, pH 6.5. The primary packing of LDLL600 is 50 ml vial, the reconstitution volume is 50 ml and the final product concentration is 12 mg/mL landiolol HCl.
(§3) 12 subjects were administered AOP LDLL600 or Esmolol (Brevibloc, 2500 mg/250 ml) in 1:1 ratio in double-blind, randomized, cross-over setting. PK, systemic cardiovascular and local tolerability and safety of the 24 h-long term infusions of three dose levels of both IMPs during each treatment period were assessed.
(§4) Landiolol was infused over 24 h in a dose of 10 μg/KG/min (2 hrs), followed by 20 μg/KG/min (2 hrs), followed by 40 μg/KG/min for 20 hrs.
(§5) Dosing algorithm was body weight divided by 20, 10 and 5 in ml/h giving 10, 20 and 40 μg/KG/min at a concentration of 12 mg/ml. No severe adverse drug reactions, mild local reactions, 1 severe local reaction (Esmolol High Dose).
(§6) Landiolol was infused over 24 h in a dose of 10, 20 and 40 μg/KG/min, i.e. 10 μg/KG/min landiolol were administered for 2 hrs, followed by 2 hrs administration of 20 μg/KG/min and further followed by 20 hrs administration of 40 μg/KG/min.
Post-infusion follow up measurements were performed immediately after 20 hrs administration study, i.e. 2, 4 min etc. after stop of landiolol administration.

healthy volunteers [2] = test: 24 h long-term infusion study: local tolerability and safety; type: in vivo, human
Protocol: as §1, §2, §3, §4, §5, §6

[3] = LD infusion (landiolol 10, esmolol 50 μg/kg/min), 6 min
[4] = LD infusion (landiolol 10, esmolol 50 μg/kg/min), 8 min
[5] = LD infusion (landiolol 10, esmolol 50 μg/kg/min), 12 min
[6] = LD infusion (landiolol 10, esmolol 50 μg/kg/min), 16 min
[7] = LD infusion (landiolol 10, esmolol 50 μg/kg/min), 20 min
[8] = LD infusion (landiolol 10, esmolol 50 μg/kg/min), 30 min
[9] = LD infusion (landiolol 10, esmolol 50 μg/kg/min), 60 min
[10] = LD infusion (landiolol 10, esmolol 50 μg/kg/min), 90 min
[11] = LD infusion (landiolol 10, esmolol 50 μg/kg/min), 2 h
[12] = MD infusion (landiolol 20, esmolol 100 μg/kg/min, after 2 h LD), 2 min
[13] = MD infusion (landiolol 20, esmolol 100 μg/kg/min, after 2 h LD), 3 min
[14] = MD infusion (landiolol 20, esmolol 100 μg/kg/min, after 2 h LD), 4 min
[15] = MD infusion (landiolol 20, esmolol 100 μg/kg/min, after 2 h LD), 6 min
[16] = MD infusion (landiolol 20, esmolol 100 μg/kg/min, after 2 h LD), 8 min
[17] = MD infusion (landiolol 20, esmolol 100 μg/kg/min, after 2 h LD), 12 min
[18] = MD infusion (landiolol 20, esmolol 100 μg/kg/min, after 2 h LD), 16 min
[19] = MD infusion (landiolol 20, esmolol 100 μg/kg/min, after 2 h LD), 20 min
[20] = MD infusion (landiolol 20, esmolol 100 μg/kg/min, after 2 h LD), 30 min
[21] = MD infusion (landiolol 20, esmolol 100 μg/kg/min, after 2 h LD), 60 min
[22] = MD infusion (landiolol 20, esmolol 100 μg/kg/min, after 2 h LD), 90 min
[23] = MD infusion (landiolol 20, esmolol 100 μg/kg/min, after 2 h LD), 2 h
[24] = 24 h infusion, three dose levels

SMILES: CC1(C)OC[C@@H](COC(=O)CCc2ccc(OC[C@@H](O)CNCCNC(=O)N3CCOCC3)cc2)O1 [Landiolol, (−)-[(S)-2,2-dimethyl-1,3-dioxolan-4-yl]methyl 3-[4-[(S)-2-hydroxy-3-(2-morpholinocarbonylamino)ethylamino]propoxy]phenylpropionate monohydrochloride]
- heart rate, Mean (SD) (healthy volunteers [1]; LD infusion (landiolol 10, esmolol 50 μg/kg/min), 4 min): 64.6 (6.97) beats per minute
- change of heart rate from predose, Mean (SD) (healthy volunteers [1]; [3]): −1.7 (7.97) beats per minute
- heart rate, Mean (SD) (healthy volunteers [1]; [3]): 65.7 (8.78) beats per minute
- change of heart rate from predose, Mean (SD) (healthy volunteers [1]; [4]): −3.6 (9.07) beats per minute
- heart rate, Mean (SD) (healthy volunteers [1]; [4]): 63.8 (6.57) beats per minute
- change of heart rate from predose, Mean (SD) (healthy volunteers [1]; [5]): −4.7 (10.99) beats per minute
- heart rate, Mean (SD) (healthy volunteers [1]; [5]): 62.7 (7.71) beats per minute
- change of heart rate from predose, Mean (SD) (healthy volunteers [1]; [6]): −7.1 (5.32) beats per minute
- heart rate, Mean (SD) (healthy volunteers [1]; [6]): 60.3 (6.72) beats per minute
- change of heart rate from predose, Mean (SD) (healthy volunteers [1]; [7]): −7.3 (10.51) beats per minute
- heart rate, Mean (SD) (healthy volunteers [1]; [7]): 60.0 (6.05) beats per minute
- change of heart rate from predose, Mean (SD) (healthy volunteers [1]; [8]): −7.8 (12.55) beats per minute
- heart rate, Mean (SD) (healthy volunteers [1]; [8]): 59.5 (8.55) beats per minute
- change of heart rate from predose, Mean (SD) (healthy volunteers [1]; [9]): −9.6 (11.89) beats per minute
- heart rate, Mean (SD) (healthy volunteers [1]; [9]): 57.8 (8.05) beats per minute
- change of heart rate from predose, Mean (SD) (healthy volunteers [1]; [10]): −9.3 (11.33) beats per minute
- heart rate, Mean (SD) (healthy volunteers [1]; [10]): 58.1 (7.14) beats per minute
- change of heart rate from predose, Mean (SD) (healthy volunteers [1]; [11]): −11.2 (11.75) beats per minute
- heart rate, Mean (SD) (healthy volunteers [1]; [11]): 56.2 (5.89) beats per minute
- change of heart rate from predose, Mean (SD) (healthy volunteers [1]; MD Predose (end of 2 h LD)): −11.2 (11.75) beats per minute
- heart rate, Mean (SD) (healthy volunteers [1]; MD Predose (end of 2 h LD)): 56.2 (5.89) beats per minute
- change of heart rate from predose, Mean (SD) (healthy volunteers [1]; [12]): −11.1 (10.73) beats per minute
- heart rate, Mean (SD) (healthy volunteers [1]; [12]): 56.3 (6.48) beats per minute
- change of heart rate from predose, Mean (SD) (healthy volunteers [1]; [13]): −9.8 (7.90) beats per minute
- heart rate, Mean (SD) (healthy volunteers [1]; [13]): 57.6 (5.02) beats per minute
- change of heart rate from predose, Mean (SD) (healthy volunteers [1]; [14]): −10.9 (9.26) beats per minute
- heart rate, Mean (SD) (healthy volunteers [1]; [14]): 56.4 (6.87) beats per minute
- change of heart rate from predose, Mean (SD) (healthy volunteers [1]; [15]): −11.2 (11.10) beats per minute
- heart rate, Mean (SD) (healthy volunteers [1]; [15]): 56.2 (7.86) beats per minute
- change of heart rate from predose, Mean (SD) (healthy volunteers [1]; [16]): −9.7 (10.96) beats per minute
- heart rate, Mean (SD) (healthy volunteers [1]; [16]): 57.7 (7.24) beats per minute
- change of heart rate from predose, Mean (SD) (healthy volunteers [1]; [17]): −12.8 (10.17) beats per minute
- heart rate, Mean (SD) (healthy volunteers [1]; [17]): 54.5 (6.07) beats per minute
- change of heart rate from predose, Mean (SD) (healthy volunteers [1]; [18]): −10.4 (11.42) beats per minute
- heart rate, Mean (SD) (healthy volunteers [1]; [18]): 56.9 (6.88) beats per minute
- change of heart rate from predose, Mean (SD) (healthy volunteers [1]; [19]): −12.8 (10.52) beats per minute
- heart rate, Mean (SD) (healthy volunteers [1]; [19]): 54.5 (6.86) beats per minute
- change of heart rate from predose, Mean (SD) (healthy volunteers [1]; [20]): −9.0 (11.92) beats per minute
- heart rate, Mean (SD) (healthy volunteers [1]; [20]): 58.3 (8.53) beats per minute
- change of heart rate from predose, Mean (SD) (healthy volunteers [1]; [21]): −11.3 (9.86) beats per minute
- heart rate, Mean (SD) (healthy volunteers [1]; [21]): 56.0 (5.17) beats per minute
- change of heart rate from predose, Mean (SD) (healthy volunteers [1]; [22]): −10.2 (10.81) beats per minute
- heart rate, Mean (SD) (healthy volunteers [1]; [22]): 57.2 (6.79) beats per minute
- change of heart rate from predose, Mean (SD) (healthy volunteers [1]; [23]): −11.3 (9.41) beats per minute
- heart rate, Mean (SD) (healthy volunteers [1]; [23]): 56.1 (7.38) beats per minute
- heart rate, Mean (SD) (healthy volunteers [1]; Predose (before first IMP administration)): 67.3 (8.18) beats per minute
- heart rate (healthy volunteers [1]; Control (before administration)): 67.8 beats per minute
- heart rate (healthy volunteers [1]; high dose (landiolol 40, esmolol 200 μg/kg/min), time 720 min): 57.5 beats per minute
- heart rate (healthy volunteers [1]; high dose (landiolol 40, esmolol 200 μg/kg/min), time 1200 min): 53.6 beats per minute
- heart rate (healthy volunteers [1]; low dose (landiolol 10, esmolol 50 μg/kg/min), time 12 min): 62.7 beats per minute
- heart rate (healthy volunteers [1]; low dose (landiolol 10, esmolol 50 μg/kg/min), time 16 min): 60.3 beats per minute
- heart rate (healthy volunteers [1]; low dose (landiolol 10, esmolol 50 μg/kg/min), time 30 min): 59.5 beats per minute
- heart rate (healthy volunteers [1]; low dose (landiolol 10, esmolol 50 μg/kg/min), time 60 min): 57.8 beats per minute
- heart rate (healthy volunteers [1]; low dose (landiolol 10, esmolol 50 μg/kg/min), time 120 min): 56.2 beats per minute
- heart rate (healthy volunteers [1]; medium dose (landiolol 20, esmolol 100 μg/kg/min), time 240 min): 56.1 beats per minute
- heart rate (healthy volunteers [1]; time after administration 12 min (end at 1440 min)): 63.5 beats per minute
- heart rate (healthy volunteers [1]; time after administration 16 min): 67 beats per minute
- heart rate (healthy volunteers [1]; time after administration 30 min): 70 beats per minute
- heart rate (healthy volunteers [1]; time after administration 60 min): 69.2 beats per minute
- heart rate (healthy volunteers [1]; time after administration 120 min): 66.8 beats per minute
- overshoot effect on heart rate (healthy volunteers [1]; after termination of long term administration, listed as landiolol-hydrochloride, monohydrochloride): avoiding any overshoot effect; also recorded: no significant overshoot effect occurs
- tolerance effect (healthy volunteers [1]; long term administration): without showing any tolerance effects
- heart rate effect during administration (healthy volunteers [1]; long term administration, listed as landiolol-hydrochloride, monohydrochloride): persistent reduction of heart rate; also recorded: significantly lower than the heart rate and/or blood pressure values achieved under esmolol long-term treatment
- local tolerability compared to Esmolol (healthy volunteers [2]; 24 h infusion): clearly better
- local reactions (percent of subjects) (healthy volunteers [2]; [24]): 16.7%
- local reactions (subjects/total) (healthy volunteers [2]; [24]): 2/12
- local venous skin irritations or inflammatory reactions at the site of injection (healthy volunteers [2]; long term treatment): did not bring about any blushing, erythema, pain, inflammation, induration, phlebitis and thrombosis
